Experimental data: patent publication US4999358A, “(1,2,3,4-tetrahydro-9-acridinimino)cyclohexane carboxylic acid and related compounds” (Hoechst-Roussel Pharmaceuticals Inc., priority 1989, dated 1991)

Tests used:
[1] = system: Scopolamine Induced Memory Deficit; test: Scopolamine-induced Dark Avoidance Assay; details: s.c., mice, 24 h
Description: In this assay mice are tested for their ability to remember an unpleasant stimulus for a period of 24 hours. A mouse is placed in a chamber that contains a dark compartment; a strong incandescent light drives it to the dark compartment, where an electric shock is administered through metal plates on the floor. The animal is removed from the testing apparatus and tested again, 24 hours later, for the ability to remember the electric shock.
If scopolamine, an anticholinergic that is known to cause memory impariment, is administered before an animal's initial exposure to the test chamber, the animal re-enters the dark compartment shortly after being placed in the test chamber 24 hours later.

acetylcholinesterase = acetylcholinesterase (Homo sapiens, UniProt P22303); test: Cholinesterase inhibition assay (photometric method of Ellman et al.); type: biochemical
Sequence of acetylcholinesterase (P22303 32-614): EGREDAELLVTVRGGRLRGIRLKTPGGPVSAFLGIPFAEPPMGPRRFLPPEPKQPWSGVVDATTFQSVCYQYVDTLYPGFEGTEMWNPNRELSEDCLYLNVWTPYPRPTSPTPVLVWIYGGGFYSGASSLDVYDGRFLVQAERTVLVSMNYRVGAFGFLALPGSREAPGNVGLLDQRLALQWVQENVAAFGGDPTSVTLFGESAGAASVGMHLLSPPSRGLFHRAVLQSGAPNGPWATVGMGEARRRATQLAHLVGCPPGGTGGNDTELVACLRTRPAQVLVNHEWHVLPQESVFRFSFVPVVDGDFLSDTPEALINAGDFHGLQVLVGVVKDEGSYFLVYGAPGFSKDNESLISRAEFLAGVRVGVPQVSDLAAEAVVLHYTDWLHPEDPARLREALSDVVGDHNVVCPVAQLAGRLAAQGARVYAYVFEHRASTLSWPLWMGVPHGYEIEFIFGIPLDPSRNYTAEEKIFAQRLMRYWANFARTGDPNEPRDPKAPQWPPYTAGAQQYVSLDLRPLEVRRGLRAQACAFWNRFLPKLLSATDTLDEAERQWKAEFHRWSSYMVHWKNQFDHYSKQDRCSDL

SMILES: O=C(O)C1CCCCC1=Nc1c2c(nc3ccccc13)CCCC2 (stereo not drawn) [2-(1,2,3,4-Tetrahydro-9-acridinimino)cyclohexanecarboxylic acid]
- % of Animals with Scopolamine Induced Memory Deficit Reversal ([1]; 0.63 mg/kg of body weight): 53%

SMILES: O=C(OCc1ccccc1)C1=C(N(Cc2ccccc2)c2c3c(nc4ccccc24)CCCC3)CCCC1 [2-[N-(Phenylmethyl)-1,2,3,4-tetrahydro-9-acridinamino]-cyclohex-1-ene carboxylic acid phenylmethyl ester]
- % of Animals with Scopolamine Induced Memory Deficit Reversal ([1]; 0.63 mg/kg of body weight): 29%

SMILES: CNC(=O)Oc1ccc2c(c1)[C@]1(C)CCN(C)[C@@H]1N2C [Physostigmine, reference compound]
- % of Animals with Scopolamine Induced Memory Deficit Reversal ([1]; 0.31 mg/kg of body weight): 20%

SMILES: CC1(C(=O)O)CCCCC1=Nc1c2c(nc3ccccc13)CCCC2 (stereo not drawn) [1-Methyl-2-(1,2,3,4-tetrahydroacridinimino)cyclohexane carboxylic acid]
- % of Animals with Scopolamine Induced Memory Deficit Reversal ([1]; 2.5 mg/kg of body weight): 20%

SMILES: CCOC(=O)C1CCCCC1=Nc1c2c(nc3ccccc13)CCCC2 (stereo not drawn) [2-(1,2,3,4-Tetrahydro-9-acridinimino)cyclohexanecarboxylic acid ethyl ester]
- % of Animals with Scopolamine Induced Memory Deficit Reversal ([1]; 0.16 mg/kg of body weight): 29%
- IC50 (acetylcholinesterase): 15.2 µM
